SMILES strings stand for the structures.

In general, Ki refers to a measure of affinity in units of concentration, obtained from inhibition or displacement.

The target in the test is T1, Corticotropin-releasing factor receptor 1 (Homo sapiens, UniProt P34998).
T1 sequence (P34998 whole entry): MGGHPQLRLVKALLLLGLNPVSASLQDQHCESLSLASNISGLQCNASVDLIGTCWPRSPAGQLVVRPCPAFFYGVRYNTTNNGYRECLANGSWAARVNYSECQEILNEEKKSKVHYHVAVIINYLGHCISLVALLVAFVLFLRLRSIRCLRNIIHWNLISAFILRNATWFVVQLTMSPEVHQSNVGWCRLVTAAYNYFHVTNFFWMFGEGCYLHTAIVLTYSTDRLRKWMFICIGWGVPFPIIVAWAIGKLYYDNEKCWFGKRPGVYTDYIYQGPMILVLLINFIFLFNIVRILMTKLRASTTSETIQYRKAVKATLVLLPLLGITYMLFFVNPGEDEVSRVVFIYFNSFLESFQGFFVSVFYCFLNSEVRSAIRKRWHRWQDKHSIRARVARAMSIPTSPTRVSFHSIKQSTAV
Briefly: Binding affinity to recombinant human Corticotropin releasing factor receptor 1 (hCRF1) expressed in 293EBNA cells. Type of test: cell-based.
Turning to `COCC(COC)Oc1nc(C)nc2c1nnn2-c1ccc(C(C)C)cc1Br`, the Ki is 7.1 nM.
Then `CCCC(CC)Nc1nc(C)nc2c1nnn2-c1ccc(C(C)C)cc1Br` (configuration not stated), with 2.8 nM; and `CCCCC(CC)Oc1nc(C)nc2c1ncn2-c1ccc(C(C)C)cc1Br` (configuration not stated), with 2.9 nM; and `Cc1nc(N(CCO)CCO)c2nnn(-c3ccc(C(C)C)cc3Br)c2n1`, with 3460 nM.
The result for `COCCN(CCOC)c1nc(C)nc2c1nnn2-c1ccc(N(C)C)cc1C(F)(F)F` reads 23.5 nM; that for `COCCN(CCOC)c1nc(C)nc2c1ncn2-c1ccc(C(C)C)cc1Br`, 5.9 nM; that for `CCCCN(CC)c1nc(C)nc2c1nnn2-c1ccc(C(C)=O)cc1Br`, 33.7 nM.
`CCN(CC)c1nc(C)nc2c1ncn2-c1ccc(C(C)C)cc1Br`: the Ki came to 12.4 nM.
Turning to `COCCN(CCOC)c1nc(C)nc2c1nnn2-c1ccc(C(C)C)cc1SC`, the Ki was found to be 15.3 nM.
For `COCCN(CCOC)c1nc(C)nc2c1nc(C)n2-c1ccc(C(C)C)cc1Br`, the Ki stood at 6.7 nM.
Then `CCC(COC)N(C)c1nc(C)nc2c1nnn2-c1ccc(C(C)C)cc1Br` (configuration not stated), with 11.2 nM; and `CCCCN(CC)c1nc(C)nc2c1nnn2-c1ccc(Br)cc1Br`, with 20.4 nM.
Then `COCCN(CCOC)c1nc(C)nc2c1nnn2-c1ccc(OC(F)(F)F)cc1Br`, with 33.2 nM.
The result for `CCCCN(CCCC)c1nc(C)nc2c1nnn2-c1ccc(C(C)C)cc1Br` reads 32.5 nM; that for `CCC(CC)Nc1nc(C)nc2c1nnn2-c1c(C)cc(C)cc1C`, 5.7 nM.
As to `CCCCN(CC)c1nc(C)nc2c1nnn2-c1c(Cl)cc(OC)cc1OC`, the Ki was 4.4 nM.
With `CCCCN(CC)c1nc(C)nc2c1ncn2-c1c(C)cc(C)cc1C`, the Ki stood at 25 nM.
For the compound `COCCN(CCOC)c1nc(C)nc2c1ncn2-c1c(C)cc(C)cc1C`, the Ki was found to be 20.7 nM.
Then `CCCCN(CCCC)c1nc(C)nc2c1ncn2-c1ccc(C(C)C)cc1Br`, with 6.1 nM; and `COCCN(Cc1cccnc1)c1nc(C)nc2c1nnn2-c1ccc(C(C)C)cc1Br`, with 48.5 nM; and `COCCCNc1nc(C)nc2c1nnn2-c1ccc(C(C)C)cc1Br`, with 291 nM.
For the compound `CCCCN(CC)c1cc(C)nc2c1nnn2-c1ccc(C(C)C)cc1SC`, the inhibitory constant (Ki) is 2.2 nM.
In the case of `CCC(CO)Nc1nc(C)nc2c1nnn2-c1ccc(C(C)C)cc1Br` (configuration not stated), the Ki was 25.3 nM.
The result for `CCN(c1nc(C)nc2c1nnn2-c1ccc(C(C)C)cc1Br)C(COC)COC` reads 123 nM.
Then `COCCN(CCOC)c1nc(C)nc2c1c(C)c(C)n2-c1c(C)cc(C)cc1C`, with 7.1 nM.
On to `COCCCN(CCOC)c1nc(C)nc2c1nnn2-c1ccc(C(C)C)cc1Br`, for which the Ki stood at 66.9 nM.
The result for `CCC(CC)Oc1nc(C)nc2c1nnn2-c1ccc(C(C)C)cc1Br` reads 1.9 nM; that for `CCCC(C)Nc1nc(C)nc2c1nnn2-c1c(C)cc(C)cc1C` (configuration not stated), 7.1 nM.
Turning to `CCC(CO)Nc1nc(C)nc2c1c(C)c(C)n2-c1c(C)cc(C)cc1C` (configuration not stated), the Ki is 27.3 nM.
The result for `CCCC(CN(C)C)Nc1nc(C)nc2c1nnn2-c1ccc(C(C)C)cc1Br` (configuration not stated) reads 38.7 nM; that for `CCCC(CCC)Nc1nc(C)nc2c1ncn2-c1ccc(C(C)C)cc1Br`, 3.6 nM; that for `CCC(Nc1nc(C)nc2c1nnn2-c1ccc(C(C)C)cc1Br)C(=O)OC` (configuration not stated), 19.4 nM.
The result for `COCC(Cc1ccccc1)Nc1nc(C)nc2c1nnn2-c1ccc(C(C)C)cc1Br` (configuration not stated) reads 36.7 nM; that for `COCC(Cc1ccccc1)Nc1nc(C)nc2c1nnn2-c1c(C)cc(C)cc1C` (configuration not stated), 27.7 nM.
For the compound `CCN(CCOC)c1nc(C)nc2c1nnn2-c1ccc(C(C)C)cc1Br`, the Ki turned out to be 10.5 nM.
Then `COCCN(CCOC)c1cc(C)nc2c1nnn2-c1ccc(C(C)C)cc1Br`, with 4.7 nM.
For the compound `COCCN(CCOC)c1nc(C)nc2c1ncn2-c1c(Br)cc(OC)cc1OC`, the Ki worked out at 31.3 nM.
In the case of `COCCN(CCOC)c1nc(C)nc2c1nnn2-c1c(C)cc(C)cc1C`, the inhibition constant Ki came out at 24.1 nM.
The result for `CCC(CC)Nc1nc(C)nc2c1nnn2-c1ccc(C(C)C)cc1Br` reads 5.2 nM.
The result for `Cc1nc(N2CCCC2)c2nnn(-c3ccc(C(C)C)cc3Br)c2n1` reads 194 nM.
Then `COCCN(CCOC)c1cc(C)nc2c1nc(C)n2-c1ccc(C(C)C)cc1Br`, with 9.8 nM.
Turning to `COCCNc1nc(C)nc2c1nnn2-c1ccc(C(C)C)cc1Br`, the Ki was 242 nM.
Consider `COCCN(CCOC)c1nc(C)nc2c1nnn2-c1ccc(N(C)C)cc1Br`, for which the Ki was 10.5 nM.
Consider `CCOCC(COCC)Oc1nc(C)nc2c1nnn2-c1ccc(C(C)C)cc1Br`, for which the Ki was 39.7 nM.
In the case of `CCCCC(CCCC)Nc1nc(C)nc2c1nnn2-c1ccc(C(C)C)cc1Br`, the Ki stood at 4.5 nM.
The result for `COCCN(CCOC)c1cc(C)nc2c1nnn2-c1ccc(C(C)C)cc1S(C)(=O)=O` reads 476 nM; that for `COCCN(CCOC)c1nc(C)nc2c1nnn2-c1c(Br)cc(OC)cc1OC`, 28.3 nM.
Then `CCCCN(CC)c1nc(C)nc2c1nnn2-c1ccc(N(C)C)cc1C(F)(F)F`, with 15.4 nM.
Then `CCCCC(CC)Nc1nc(C)nc2c1nnn2-c1ccc(C(C)C)cc1Br` (configuration not stated), with 3.1 nM; and `COCCN(CCOC)c1nc(C)nc2c1nnn2-c1ccc(Br)cc1Br`, with 7.4 nM.
With `CCCCC(CC)Nc1nc(C)nc2c1nnn2-c1c(C)cc(C)cc1C` (configuration not stated), the Ki stood at 7.6 nM.
Then `COCC(COC)Nc1nc(C)nc2c1nnn2-c1ccc(C(C)C)cc1Br`, with 10.3 nM.
Then `CCCCc1nc2c(N(CC)CCCC)nc(C)nc2n1-c1c(Cl)cc(OC)cc1OC`, with 22 nM; and `CCCCN(CC)c1nc(C)nc2c1nnn2-c1ccc(S(C)(=O)=O)cc1Br`, with 100 nM.
For `COCCN(CCOC)c1nc(C)nc2c1nnn2-c1c(C)cc(C)nc1C`, the Ki was 416 nM.
`CCCCN(CC)c1nc(C)nc2c1nnn2-c1c(C)cc(C)cc1C`: the Ki came to 27.5 nM.
Then `CCCCC(CC)Nc1nc(C)nc2c1ncn2-c1ccc(C(C)C)cc1Br` (configuration not stated), with 5.1 nM; and `CCCCN(CC)c1nc(C)nc2c1ncn2-c1ccc(C(C)C)cc1Br`, with 4.3 nM.
As for `COCCN(CCOC)c1cc(C)nc2c1nnn2-c1ccc(C(C)C)cc1SC`, the Ki turned out to be 4.7 nM.
As for `CCN(CCOC)c1nc(C)nc2c1ncn2-c1ccc(C(C)C)cc1Br`, the Ki came to 9.2 nM.
As to `CCCCN(CC)c1ncnc2c1nnn2-c1ccc(C(C)C)cc1Br`, the inhibitory constant (Ki) was determined as 287 nM.
For `CCN(CCOC)c1nc(C)nc2c1nnn2-c1c(C)cc(C)cc1C`, the Ki came out at 20.7 nM.
Then `COCCN(CCOC)c1nc(C)nc2c1nnn2-c1c(Cl)cc(OC)cc1OC`, with 21 nM; and `CCCCN(CC)c1nc(C)nc2c1nc(-c1ccccc1)n2-c1c(Cl)cc(OC)cc1OC`, with 133 nM.
The result for `COCC(C)(C)Nc1nc(C)nc2c1nnn2-c1ccc(C(C)C)cc1Br` reads 195 nM.
On to `CCCC(Nc1nc(C)nc2c1nnn2-c1ccc(C(C)C)cc1Br)C(=O)N(C)C` (configuration not stated), for which the Ki stood at 235 nM.
Then `Cc1cc(C)c(-n2c(C)c(C)c3c(N4CCOCC4)nc(C)nc32)c(C)c1`, with 201 nM; and `CCCCNc1nc(C)nc2c1c(C)c(C)n2-c1c(C)cc(C)cc1C`, with 29 nM.
The result for `COCCNc1nc(C)nc2c1ncn2-c1ccc(C(C)C)cc1Br` reads 210 nM; that for `C=CCN(CCOC)c1nc(C)nc2c1nnn2-c1ccc(C(C)C)cc1Br`, 4.3 nM; that for `Cc1nc(N2CCCCC2)c2nnn(-c3ccc(C(C)C)cc3Br)c2n1`, 46 nM.
The result for `COCCN(CCOC)c1nc(C)nc2c1nnn2-c1c(Br)cc(OC)cc1N(C)C` reads 48.2 nM; that for `CCN(CC)c1nc(C)nc2c1nnn2-c1ccc(C(C)C)cc1Br`, 25.3 nM.
In the case of `CCCCNc1nc(C)nc2c1nnn2-c1ccc(C(C)C)cc1Br`, the Ki was 69.6 nM.
Regarding `CCCC(CCC)Nc1nc(C)nc2c1nnn2-c1ccc(Br)cc1Br`, the Ki amounted to 0.8 nM.
With `CCCCN(CC)c1nc(C)nc2c1ncn2-c1c(Br)cc(OC)cc1OC`, the Ki came out at 3.5 nM.
The result for `CCCCN(CC)c1nc(C)nc2c1nc(C(F)(F)F)n2-c1ccc(C(C)C)cc1Br` reads 1.4 nM; that for `CCCCN(CC)c1nc(C)nc2c1nnn2-c1ccc(SC)cc1Br`, 10.6 nM; that for `COCCN(CCOC)c1nc(C)nc2c1nnn2-c1ccc(C(C)C)cc1`, 3920 nM.
Then `CCCCN(CC)c1cc(C)nc2c1nc(C)n2-c1ccc(C(C)C)cc1Br`, with 3.9 nM; and `CCCCC(CC)Oc1nc(C)nc2c1nnn2-c1ccc(C(C)C)cc1Br` (configuration not stated), with 1.5 nM.
Consider `COCCN(CC1CC1)c1nc(C)nc2c1nnn2-c1ccc(C(C)C)cc1Br`, for which the Ki came out at 4.6 nM.
As to `COCCN(CCOC)c1ncnc2c1nnn2-c1ccc(C(C)C)cc1Br`, the Ki turned out to be 203 nM.
Then `COCC(COC)N(C)c1nc(C)nc2c1nnn2-c1ccc(C(C)C)cc1Br`, with 21.3 nM.
The result for `CCCC(CCC)Nc1nc(C)nc2c1nnn2-c1c(C)cc(C)cc1C` reads 4 nM.
The result for `CCCCN(CC)c1nc(C)nc2c1ncn2-c1c(Cl)cc(OC)cc1OC` reads 5.2 nM.
On to `CCCC(CC)Nc1nc(C)nc2c1ncn2-c1ccc(C(C)C)cc1Br` (configuration not stated), for which the Ki turned out to be 4.4 nM.
For the compound `CCCCN(CC)c1nc(C)nc2c1nc(C)n2-c1c(Cl)cc(OC)cc1OC`, the Ki is 3.5 nM.
Then `Cc1nc(NC2CCCC2)c2nnn(-c3ccc(C(C)C)cc3Br)c2n1`, with 120 nM; and `COCCN(CCO)c1nc(C)nc2c1nnn2-c1ccc(C(C)C)cc1Br`, with 64 nM.
With `CCC(CC)Oc1nc(C)nc2c1ncn2-c1ccc(C(C)C)cc1Br`, the Ki was determined as 3.5 nM.
For the compound `CCCCN(CC)c1nc(C)nc2c1nnn2-c1c(Br)cc(OC)cc1OC`, the Ki worked out at 3 nM.

The values above are taken from ChEMBL document CHEMBL1132598, “Synthesis, corticotropin-releasing factor receptor binding affinity, and pharmacokinetic properties of triazolo-, imidazo-, and pyrrolopyrimidines and -pyridines” (J Med Chem, 1999).
